This passage reports IC50 results from patent publication US10806785B2, “Immunomodulator compounds and methods of use” (Incyte Corporation, priority 2016, dated 2020).

Bounds are passed on as bounds.

This assay concerns the target PD-1/PD-L1 (Homo sapiens (Human), UniProt Q9NZQ7). The assay is described as follows: PD-1/PD-L1 binding assay (HTRF). In short, it runs like this:
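HTRF read-out (665/620 nm) after 60 min at 25 °C with 1 nM Eu anti-human IgG and 20 nM APC anti-His. Beforehand, inhibitors were preincubated 40 min with Fc-PD-1 (25-167, […] as listed) and His-PD-L1 (19-238, 10 nM) in PBS pH 7.4 with Tween-20, BSA, 1% DMSO; IC50 from log-concentration curve.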
On the technique in general: TR-FRET usually uses a lanthanide donor and a delayed reading to cut background.

Sequence of PD-1/PD-L1 (Q9NZQ7 19-238): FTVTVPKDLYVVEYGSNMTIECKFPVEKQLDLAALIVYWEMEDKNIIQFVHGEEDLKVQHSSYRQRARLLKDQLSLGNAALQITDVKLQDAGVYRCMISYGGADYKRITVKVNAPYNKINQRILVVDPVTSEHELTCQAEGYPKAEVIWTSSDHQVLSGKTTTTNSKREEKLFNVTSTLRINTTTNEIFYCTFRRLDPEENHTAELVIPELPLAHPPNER

`Cn1c(C(=O)Nc2cccc(-c3cccc(NC(=O)c4nc5c(n4C)CCN(C4CCOCC4)C5)c3C#N)c2Cl)nc2c1CCN(CC[C@H]1CC[C@H](C(=O)O)CC1)C2` [Compound 153, trans-4-(2-(2-((2-chloro-2′-cyano-3′-(1-methyl-5-(tetrahydro-2H-pyran-4-yl)-4,5,6,7-tetrahydro-1H-imidazo[4,5-c]pyridine-2-carboxamido)-[1,1′-biphenyl]-3-yl)carbamoyl)-1-methyl-1,4,6,7-tetrahydro-5H-imidazo[4,5-c]pyridin-5-yl)ethyl)cyclohexane-1-carboxylic acid] registered an IC50 of at most 10 nM. Next, `Cc1c(NC(=O)c2cc(CN3CCCC3)cn(C)c2=O)cccc1-c1cccc(NC(=O)c2nc3c(n2C)CCN(C)C3)c1Cl` [Example 50, N-(2-chloro-2′-methyl-3′-(1-methyl-2-oxo-5-(pyrrolidin-1-ylmethyl)-1,2-dihydropyridine-3-carboxamido)biphenyl-3-yl)-1,5-dimethyl-4,5,6,7-tetrahydro-1H-imidazo[4,5-c]pyridine-2-carboxamide]: at most 10 nM. Next, `CN1CCc2c(nc(C(=O)Nc3cccc(-c4cccc(NC(=O)c5nc6c(n5C)CCN(C[C@H]5CC[C@H](C(=O)O)CC5)C6)c4C#N)c3Cl)n2C)C1` [Compound 147, trans-4-((2-((2′-chloro-2-cyano-3′-(1,5-dimethyl-4,5,6,7-tetrahydro-1H-imidazo[4,5-c]pyridine-2-carboxamido)-[1,1′-biphenyl]-3-yl)carbamoyl)-1-methyl-1,4,6,7-tetrahydro-5H-imidazo[4,5-c]pyridin-5-yl)methyl)cyclohexane-1-carboxylic acid]: at most 10 nM. `CCN1CCc2c(nc(C(=O)Nc3cccc(-c4cccc(NC(=O)c5nc6c(n5C)CCN(C[C@H]5CC[C@@H](C(=O)O)CC5)C6)c4Cl)c3Cl)n2C)C1` [Example 70, cis-4-((2-((2,2′-dichloro-3′-(5-ethyl-1-methyl-4,5,6,7-tetrahydro-1H-imidazo[4,5-c]pyridine-2-carboxamido)-[1,1′-biphenyl]-3-yl)carbamoyl)-1-methyl-1,4,6,7-tetrahydro-5H-imidazo[4,5-c]pyridin-5-yl)methyl)cyclohexane-1-carboxylic acid]: the IC50 is at most 10 nM.

On to `Cc1c(NC(=O)c2nc3c(n2C)CCN(C)C3)cccc1-c1cccc(NC(=O)c2nc3c(n2C)CCN(CC2CCC(C)(C(=O)O)CC2)C3)c1Cl` (single isomer, unassigned) [Compound 120-1, 4-((2-((2-chloro-3′-(1,5-dimethyl-4,5,6,7-tetrahydro-1H-imidazo[4,5-c]pyridine-2-carboxamido)-2′-methyl-[1,1′-biphenyl]-3-yl)carbamoyl)-1-methyl-1,4,6,7-tetrahydro-5H-imidazo[4,5-c]pyridin-5-yl)methyl)-1-methylcyclohexane-1-carboxylic acid], for which the IC50 was at most 10 nM.

For the compound `Cc1c(NC(=O)c2nc3c(n2C)CCN(C(C)C)C3)cccc1-c1cccc(NC(=O)c2nc3c(n2C)CCN(CC[C@H]2CC[C@H](C(=O)O)CC2)C3)c1Cl` [Example 129, trans-4-(2-(2-((2-chloro-3′-(5-isopropyl-1-methyl-4,5,6,7-tetrahydro-1H-imidazo[4,5-c]pyridine-2-carboxamido)-2′-methyl-[1,1′-biphenyl]-3-yl)carbamoyl)-1-methyl-1,4,6,7-tetrahydro-5H-imidazo[4,5-c]pyridin-5-yl)ethyl)cyclohexane-1-carboxylic acid], the IC50 was at most 10 nM. Compound `CN1CCc2c(nc(C(=O)Nc3cccc(-c4cccc(NC(=O)c5nc6c(n5C)CCN(C[C@H]5CC[C@H](C(=O)O)CC5)C6)c4Cl)c3C#N)n2C)C1` [Compound 149, trans-4-((2-((2-chloro-2′-cyano-3′-(1,5-dimethyl-4,5,6,7-tetrahydro-1H-imidazo[4,5-c]pyridine-2-carboxamido)-[1,1′-biphenyl]-3-yl)carbamoyl)-1-methyl-1,4,6,7-tetrahydro-5H-imidazo[4,5-c]pyridin-5-yl)methyl)cyclohexane-1-carboxylic acid] gave an IC50 of at most 10 nM.

By IC50 is commonly meant the concentration at which inhibition is half-maximal.
